Target: T1, PAC (puromycin N-acetyltransferase) (Streptomyces alboniger, UniProt P13249)
T1 construct: native full-length pac amplified from pBABE-puro, N-terminal His6-tag (pET43a), expressed in E. coli BL21(DE3); IMAC and Superdex 75; tag removal not mentioned
Test: X-ray crystal structure
Assay type: binding

[1] = crystals grown with 2 mM AcCoA and 2 mM puromycin, pH 8.26, trapped reaction product

T1 sequence (P13249 whole entry): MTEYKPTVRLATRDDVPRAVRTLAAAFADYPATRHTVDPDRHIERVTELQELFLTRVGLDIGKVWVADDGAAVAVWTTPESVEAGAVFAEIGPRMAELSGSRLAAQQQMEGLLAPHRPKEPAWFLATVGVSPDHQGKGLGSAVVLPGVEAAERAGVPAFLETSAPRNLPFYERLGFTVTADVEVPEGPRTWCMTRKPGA

## CC(C)(COP(=O)(O)OP(=O)(O)OC[C@H]1O[C@@H](n2cnc3c(N)ncnc32)[C@H](O)[C@@H]1OP(=O)(O)O)[C@@H](O)C(=O)NCCC(=O)NCCS [CoA]
[1]
  X-ray crystal structure: The ligands modelled into this structure were CoA and N-acetylated puromycin

## COc1ccc(C[C@H](NC(C)=O)C(=O)N[C@H]2[C@@H](O)[C@H](n3cnc4c(N(C)C)ncnc43)O[C@@H]2CO)cc1 [N-acetylated puromycin]
[1]
  X-ray crystal structure: The ligands modelled into this structure were CoA and N-acetylated puromycin

## CC(=O)SCCNC(=O)CCNC(=O)[C@H](O)C(C)(C)COP(=O)(O)OP(=O)(O)OC[C@H]1O[C@@H](n2cnc3c(N)ncnc32)[C@H](O)[C@@H]1OP(=O)(O)O [acetyl-CoA]
Crystals with 0.1 mM AcCoA, pH 9.0, acetyl donor site
  X-ray crystal structure: allowed the initial structure to be solved with AcCoA bound
